Among the data in patent US20070092551A1, “Therapeutic agent” (TAKARA BIO INC., priority 2003, published 2007) are activation values, retold here.

Like-named read-outs stand apart in the source and are kept apart here. Some results are limits rather than exact numbers.

Test [1] relates to 3T3-L1 cells. In words: Induction of adipocyte differentiation (amount of triglyceride biosynthesis). It is filed as cell-based. Conditions: Mus musculus. The procedure: Induction of adipocyte differentiation was carried out by partially modifying the above-mentioned method of Rubin C. S. et al. In addition, as a test compound, a compound prepared in Examples mentioned above or a commercially available compound was used. 3T3-L1 cells (ATCC CCL-92.1) were suspended in a 10% fetal bovine serum (manufactured by Bio Whittaker)-containing Dulbecco's modified Eagle's medium (manufactured by Sigma, D6046) containing 200 μM ascorbic acid so as to have a density of 4×10^3 cells/mL, and the suspension was put in each well of a 12-well microtiter plate in an amount of 2 ml per well. The cells were cultured at 37° C. for 7 days in the presence of 5% carbon dioxide gas. On the seventh day, the medium was exchanged with a 10% fetal bovine serum (manufactured by Bio Whittaker)-containing Dulbecco's modified Eagle's medium containing 200 μM ascorbic acid and 0.25 μM dexamethasone, and a test compound dissolved in dimethyl sulfoxide in a concentration shown in each of Tables 16 to 19 was added to each well. Here, there were set a group with addition of 4 μL of an aqueous solution containing 5 mg/mL insulin (manufactured by TAKARA BIO INC.) as a positive control, and a group with addition of dimethyl sulfoxide as a negative control. After 45 hours, the medium was exchanged with a 10% fetal bovine serum-containing Dulbecco's modified Eagle's medium containing 200 μM ascorbic acid. A test compound, 2 μL of an aqueous solution containing 5 mg/mL insulin as a positive control, or dimethyl sulfoxide as a negative control was put to each well in the same concentration. The cells were cultured for additional 7 days. In addition, the medium was exchanged on after 2 days and after 5 days, and at that time, a test compound, 2 μL of an aqueous solution containing 5 mg/mL insulin as a positive control, or dimethyl sulfoxide as a negative control was put to each well in the same concentration.
The amount of triglyceride in the adipocytes was determined as an index of induction of differentiation into mature adipocytes, and also, as the evaluation of insulin-mimetic action.
After the termination of the culture, the medium was removed, and the cells were washed twice with a phosphate buffered saline. One milliliter of a solvent of hexane:isopropanol=3:2 was added to the cells. The mixture was allowed to stand at room temperature for 30 minutes, and thereafter the supernatant was collected. The procedures were repeated again, and 2 mL of the supernatant was concentrated to dryness. The precipitate was dissolved in 100 μL of isopropanol, and the amount of triglyceride contained in 10 μL of the solution was determined using a triglyceride E-test (manufactured by Wako Pure Chemical Industries, Ltd., code 432-40201). In addition, all the determinations were carried out twice. The action for induction of differentiation was calculated by the following calculation formula, and shown by four ranks of +++, ++, + and +/−. • S: Amount of triglyceride in the presence of a test compound; • N: Amount of triglyceride in the negative control; and • P: Amount of triglyceride in the positive control; X=(S−N)/(P−N) (Judgment of Action for Induction of Differentiation)

Test [2] relates to mature adipocytes (3T3-L1 cells). In words: Enhancing action on glucose uptake (2-deoxyglucose) into mature adipocytes. It is filed as cell-based. Conditions: Mus musculus, 3T3-L1, X=(S−N)/(P−N) of 2-deoxyglucose uptake, P=insulin 1 μg/mL, read-out: Enhancing Action on Glucose Uptake. The procedure:
The induction of differentation into nature adipocytes was carried out by partially modifying the above-mentioned method of Rubin C. S. et al. 3T3-L1 cells (ATCC CCL-92.1) were suspended in a 10% fetal bovine serum (manufactured by Bio Whittaker)-containing Dulbecco's modified Eagle's medium (manufactured by Sigma, D6046) containing 200 μM ascorbic acid so as to have a density of 4×10^3 cells/mL, and the suspension was put in each well of a collagen type I-coated 12-well plate (Iwaki Glass Co., Ltd., code 4815-010) in an amount of 2 mL per well. The cells were cultured at 37° C. for 7 days in the presence of 5% carbon dioxide gas. On the seventh day, the medium was exchanged with 2 mL of a 10% fetal bovine serum (manufactured by Bio Whittaker)-containing Dulbecco's modified Eagle's medium containing 200 μM ascorbic acid, 0.25 μM dexamethasone, 10 μg/mL insulin (manufactured by TAKARA BIO INC.) and 0.5 mM 3-isobutyl-1-methylxanthine (manufactured by nacalai tesque, 19624-86). After 45 hours, the medium was exchanged with 2 mL of a 10% fetal bovine serum-containing Dulbecco's modified Eagle's medium containing 200 μM ascorbic acid and 5 μg/mL insulin. The medium was exchanged on after 2 days and 5 days, and the cells were cultured for 7 days, to give mature adipocytes.
As the evaluation of the enhancing action on glucose uptake, and also as the evaluation of the insulin-mimetic action, the amount of 2-deoxyglucose uptake into mature adipocytes during the stimulation of the test compound in the adipocytes was determined. As a test compound, a compound prepared in the Examples mentioned above or a commercially available compound was used.
After the termination of the culture, the medium was removed, and the cells were washed twice with a 0.1% (w/v) bovine serum albumin (manufactured by Sigma, A8022)-containing Dulbecco's modified Eagle's medium. Thereafter, 1 mL of the same medium containing a test compound in a concentration shown in each of Tables 20 to 23 was put to each well. The cells were cultured overnight at 37° C. in the presence of 5% carbon dioxide gas. Here, a group without containing the test compound was set as a negative control. After the overnight culture, the cells were washed twice with a HEPES buffer (140 mM NaCl, 5 mM KCl, 2.5 mM MgSO4, 1 mM CaCl2, 20 mM HEPES-Na (pH 7.4)). The amount 0.9 mL of the buffer containing a test compound in the same concentration was added to each well. The cells were cultured at 37° C. for 75 minutes. During the culture, as a positive control, there was set a group with addition of insulin to the well without addition of a test compound at a point 45 minutes passed so as to have a final concentration of 1 μg/mL. Thereafter, 100 μL of a HEPES buffer containing 0.5 μCi/mL 2-deoxy-[1,2-^3H(N)]-glucose (manufactured by PerkinElmer Life Sciences Inc., NET549A) and 1 mM 2-deoxyglucose (manufactured by nacalai tesque, 10722-11) was added thereto. The cells were cultured at 37° C. for additional 10 minutes. After the termination of the culture, the supernatant was removed, and the cells were washed three times with a phosphate buffer cooled to 4° C. Thereafter, 0.5 mL of a 1% Nonidet P-40-containing phosphate buffer was added to lyse the cells, whereby 2-deoxy-[1,2-^3H(N)]-glucose subjected to uptake into the cells was eluted. The radioactivity was determined with a liquid scintillation counter LS6500 (manufactured by Beckmann) using 25 μL of the supernatant with Ultima Gold (manufactured by PerkinElmer Life Sciences Inc., 6013329) as a scintillation cocktail. The enhancing action on glucose uptake was calculated by the following calculation formula, and shown by four ranks of +++, ++, + and +/−. • S: Amount of 2-deoxyglucose uptake in the presence of a test compound; • N: Amount of 2-deoxyglucose uptake in the negative control; and • P: Amount of 2-deoxyglucose uptake in the positive control; X=(S−N)/(P−N) (Judgment of Enhancing Action for 2-Deoxyglucose Uptake)

The mark [3] stands for this setting: 3T3-L1, X=(S−N)/(P−N) of amount of triglyceride, P=insulin positive control, read-out: Action for Induction of Differentiation.
Where [4] appears, read: 3T3-L1, 13 μM, X=(S−N)/(P−N) of amount of triglyceride, P=insulin positive control, read-out: Action for Induction of Differentiation.
[5] abbreviates: 3T3-L1, read-out: Action for Induction of Differentiation.

Regarding `COc1cc(O)c(C(=O)/C=C/c2ccc(O)cc2)cc1CC=C(C)C` [Bavachalcone, 4,2′-Dihydroxy-4′-methoxy-5′-prenylchalcone], the activation at 4 µM in test [1] (setting [3]) lay in the range of 15 to 30%. In test [1] (setting [4]), the activation at 13 µM was 30 to 60%. For the same compound, in test [2], the activation at 10 µM fell in the range of 30 to 60% and the activation at 30 µM is > 100%.

For `COc1ccc(C(=O)/C=C/c2ccc(O)cc2)c(O)c1` [Compound (C020), 4,2′-dihydroxy-4′-methoxychalcone], in test [1] (setting [3]), the activation at 4 µM is 30 to 60%. The activation at 13 µM in test [1] (setting [4]) was in the range of 60 to 100%. In addition, in test [2], the activation at 10 µM fell in the range of 30 to 60% and the activation at 30 µM was in the range of 60 to 100%.

With `COc1ccc(C(C)=O)c(O)c1CC=C(C)C` [Compound (C026), 2′-hydroxy-3′-prenyl-4′-methoxyacetophenone], in test [1] (3T3-L1, 1.3 μM, X=(S−N)/(P−N) of amount of triglyceride, P=insulin positive control, read-out: Action for Induction of Differentiation), the activation at 1.3 µM fell in the range of 30 to 60%. Besides, the activation at 4 µM in test [1] (setting [3]) is 60 to 100%. In addition, in test [1] (setting [4]), the activation at 13 µM lay in the range of 60 to 100%. In test [2], the activation at 3 µM is 15 to 30%, the activation at 10 µM lay in the range of 30 to 60% and the activation at 30 µM was in the range of 30 to 60%.

On to `COc1cc(O)c(C(C)=O)cc1CC=C(C)C` [Compound (C027), 2′-hydroxy-4′-methoxy-5′-prenylacetophenone], for which the activation at 4 µM in test [1] (setting [3]) was in the range of 15 to 30%. The activation at 13 µM in test [1] (setting [4]) fell in the range of 30 to 60%. For the same compound, in test [2], the activation at 10 µM lay in the range of 15 to 30% and the activation at 30 µM is 30 to 60%.

`COc1ccc(C(=O)/C=C/c2ccc(OC(C)=O)cc2)c(OC(C)=O)c1CC=C(C)C` [Compound (C032), 4,2′-diacetoxy-3′-prenyl-4′-methoxychalcone]: in test [1] (setting [3]), the activation at 1 µM was 60 to 100%, the activation at 3 µM was > 100% and the activation at 10 µM was > 100%. For the same compound, in test [2], the activation at 3 µM is > 100%, the activation at 10 µM is > 100% and the activation at 30 µM is > 100%.

`COc1ccc(C(=O)/C=C/c2cccs2)c(O)c1CC=C(C)C` [Compound (C-THP), 1-(2-hydroxy-4-methoxy-3-prenylphenyl)-3-(2-thienyl)-2-propen-1-one]: in test [1] (setting [3]), the activation at 1 µM lay in the range of 15 to 30%, the activation at 3 µM was 60 to 100% and the activation at 10 µM is > 100%.

For `CC(C)=CCC/C(C)=C/Cc1c(O)ccc2c1OC(c1ccc(O)cc1)CC2=O` (stereo not drawn) [Prostratol F], in test [1] (setting [3]), the activation at 3 µM is 60 to 100% and the activation at 10 µM was in the range of 60 to 100%.

Turning to `CC12CCC(O)C(C)(C)C1Cc1c(O)ccc(C(=O)/C=C/c3ccc(O)cc3)c1O2` (stereo not drawn) [TB1, 1-(5,6,7,8,8a,10a-hexahydro-1,7-dihydroxy-8,8,10a-trimethyl-9H-xanthen-4-yl)-3-(4-hydroxyphenyl)-2-propen-1-one], in test [1] (setting [3]), the activation at 3 µM was > 100% and the activation at 10 µM lay within 60 to 100%.

For `CC(C)=CCCC1(C)Oc2c(C(=O)/C=C/c3ccc(O)cc3)ccc(O)c2CC1O` (stereo not drawn) [TB2, 1-(3,4-dihydro-3,5-dihydroxy-2-(3-isohexenyl)-2-methyl-2H-benzopyran-8-yl)-3-(4-hydroxyphenyl)-2-propen-1-one], in test [1] (setting [3]), the activation at 3 µM was > 100% and the activation at 10 µM was > 100%.

As to `COc1ccc(C(=O)/C=C/c2ccc(O)cc2)c2c1CC(C(C)(C)O)O2` (stereo not drawn) [TB4, 1-[2,3-dihydro-2-(1-hydroxy-1-methylethyl)-4-methoxy-benzofuran-7-yl]-3-(4-hydroxyphenyl)-2-propen-1-one], in test [1] (setting [3]), the activation at 3 µM is 30 to 60% and the activation at 10 µM was in the range of 30 to 60%.

As to `C/C(=C\Cc1c(O)ccc(C(=O)/C=C/c2ccc(O)cc2)c1O)CCC(O)C(C)(C)O` (stereo not drawn) [TB5, 1-[2,4-dihydroxy-3-(6,7-dihydroxy-3,7-dimethyl-2-octenyl)phenyl]-3-(4-hydroxyphenyl)-2-propen-1-one], in test [1] (setting [3]), the activation at 3 µM was > 100% and the activation at 10 µM was > 100%.

With `C=C(C)C(O)CC/C(C)=C/Cc1c(OC)ccc(C(=O)/C=C/c2ccc(O)cc2)c1O` (stereo not drawn) [Xanthoangelol G], in test [1] (setting [3]), the activation at 3 µM fell in the range of 30 to 60% and the activation at 10 µM is > 100%. The activation at 30 µM in test [1] (3T3-L1, 30 μM, X=(S−N)/(P−N) of amount of triglyceride, P=insulin positive control, read-out: Action for Induction of Differentiation) was > 100%.

`COc1c2occc2cc2ccc(=O)oc12` [Xanthotoxin]: in test [1] (setting [5]), the activation at 13 µM lay in the range of 30 to 60% and the activation at 40 µM is 60 to 100%.
